# Literature values, collected in patent US20180125916A1, “System and Method for Natural Hair Loss Prevention Oil” (priority 2016, published 2018).
# Tested on: male pattern baldness
Structure (SMILES),sexual dysfunction side effect (administered orally),shedding on use (first 2 months of use),itching as a side effect (in vivo)
CC(C)(C)NC(=O)[C@H]1CC[C@H]2[C@@H]3CC[C@H]4NC(=O)C=C[C@]4(C)[C@H]3CC[C@]12C [Finasteride],known to cause permanent sexual dysfunction,,
Nc1cc(N2CCCCC2)nc(N)[n+]1[O-] [Minoxidil],,can cause shedding in the first 2 months of use,high likelihood of a considerable itching
